# Patent US5302398A, “Gastroresistant pharmaceutical formulations for oral administration containing salts of bile acids” (Alfa Wassermann S.p.A., priority 1991, dated 1994)
# Counter-ions that a name gives are not always drawn.
# Test: pH of 1% (w/v) aqueous solution of the salt
# Type: physicochemical
# Settings: 1% (w/v) in water
# Protocol: The sodium and potassium salts of the ursodeoxycholic acid, whose 1% (w/v) aqueous solutions show pH values respectively equal to 7.80 and 7.90, are prepared in a similar manner.
# 20 Ml of a 0.5 M aqueous solution (10 mmoles) of 1-(2-hydroxyethyl)pyrrolidine are added under stirring to a suspension containing 3.92 g (10 mmoles) of ursodeoxycholic acid in 50 ml of water prolonging the stirring until complete solubilization. The obtained solution is then freeze-dried obtaining with quantitative yield a white powder corresponding to the salt in object.
# The N-methyl-D-glucamine and L-arginine salts of the ursodeoxycholic acid, whose 1% (w/v) aqueous solutions show pH values respectively equal to 8.06 and 7.75, are prepared in a similar manner.
# 10 Ml of a 1 M aqueous solution (10 mmoles) of choline bicarbonate are added under stirring to a suspension containing 3.92 g (10 mmoles) of ursodeoxycholic acid in 50 ml of water prolonging the stirring until complete solubilization.
row,Structure (SMILES),pH value of a 1% (w/v) aqueous solution
1,C[C@H](CCC(=O)O)[C@H]1CC[C@H]2[C@@H]3[C@@H](O)C[C@@H]4C[C@H](O)CC[C@]4(C)[C@H]3CC[C@]12C [sodium salt of the ursodeoxycholic acid],7.80
2,C[C@H](CCC(=O)O)[C@H]1CC[C@H]2[C@@H]3[C@@H](O)C[C@@H]4C[C@H](O)CC[C@]4(C)[C@H]3CC[C@]12C [potassium salt of the ursodeoxycholic acid],7.90
3,"C[C@H](CCC(=O)O)[C@H]1CC[C@H]2[C@@H]3[C@@H](O)C[C@@H]4C[C@H](O)CC[C@]4(C)[C@H]3CC[C@]12C [Example 3, CHOLINE SALT OF THE URSODEOXYCHOLIC ACID]",7.40
4,C[C@H](CCC(=O)O)[C@H]1CC[C@H]2[C@@H]3[C@@H](O)C[C@@H]4C[C@H](O)CC[C@]4(C)[C@H]3CC[C@]12C [L-arginine salt of the ursodeoxycholic acid],7.75
5,"C[C@H](CCC(=O)O)[C@H]1CC[C@H]2[C@@H]3[C@@H](O)C[C@@H]4C[C@H](O)CC[C@]4(C)[C@H]3CC[C@]12C [Example 2, 1-(2-HYDROXYETHYL)PYRROLIDINE SALT OF THE URSODEOXYCHOLIC ACID]",7.90
6,"C[C@H](CCC(=O)O)[C@H]1CC[C@H]2[C@@H]3[C@@H](O)C[C@@H]4C[C@H](O)CC[C@]4(C)[C@H]3CC[C@]12C [Example 1, LITHIUM SALT OF THE URSODEOXYCHOLIC ACID]",8.13
7,C[C@H](CCC(=O)O)[C@H]1CC[C@H]2[C@@H]3[C@@H](O)C[C@@H]4C[C@H](O)CC[C@]4(C)[C@H]3CC[C@]12C [N-methyl-D-glucamine salt of the ursodeoxycholic acid],8.06

# Test: not given
# Settings: intestinal bacterial flora; pH lower than 8.4; cited from earlier work
row,Structure (SMILES),biotransformation of the unabsorbed portion
1,C[C@H](CCC(=O)O)[C@H]1CC[C@H]2[C@@H]3[C@@H](O)C[C@@H]4C[C@H](O)CC[C@]4(C)[C@H]3CC[C@]12C [ursodeoxycholic acid],undergoes a biotransformation to litocholic acid
